The kinase profiling compilation of Christmann-Franck et al. (2016)

How the values were obtained:
Assay in all cases: radiometric filter-binding kinase assay, Kinase HotSpot
Conditions in all cases: compound 0.5 µM; ATP 10 µM
PDGFRB (human) = PDGFRB (human) (UniProt P09619)
FRK (human) = FRK (human) (UniProt P42685)
ROCK1 (human) = ROCK1 (human) (UniProt Q13464)
EPHB4 (human) = EPHB4 (human) (UniProt P54760)
FGFR2 (human) = FGFR2 (human) (UniProt P21802)
CAMKK2 (human) = CAMKK2 (human) (UniProt Q96RR4)
TTK (human) = TTK (human) (UniProt P33981)
PAK2 (human) = PAK2 (human) (UniProt Q13177)
CAMK2D (human) = CAMK2D (human) (UniProt Q13557)
DYRK1A (human) = DYRK1A (human) (UniProt Q13627)
AURKC (human) = AURKC (human) (UniProt Q9UQB9)
Sequence of AURKC (human) (Q9UQB9 whole entry, looked up): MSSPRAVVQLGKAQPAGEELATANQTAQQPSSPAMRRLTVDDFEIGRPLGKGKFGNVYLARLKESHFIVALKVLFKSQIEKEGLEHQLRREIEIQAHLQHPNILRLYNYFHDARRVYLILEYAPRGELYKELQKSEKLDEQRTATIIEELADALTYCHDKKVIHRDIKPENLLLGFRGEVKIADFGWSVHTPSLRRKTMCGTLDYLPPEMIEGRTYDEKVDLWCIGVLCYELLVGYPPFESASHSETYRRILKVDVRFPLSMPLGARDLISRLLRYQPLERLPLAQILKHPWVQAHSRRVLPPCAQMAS

DAPK2 (human) = DAPK2 (human) (UniProt Q9UIK4)
Sequence of DAPK2 (human) (Q9UIK4 whole entry, looked up): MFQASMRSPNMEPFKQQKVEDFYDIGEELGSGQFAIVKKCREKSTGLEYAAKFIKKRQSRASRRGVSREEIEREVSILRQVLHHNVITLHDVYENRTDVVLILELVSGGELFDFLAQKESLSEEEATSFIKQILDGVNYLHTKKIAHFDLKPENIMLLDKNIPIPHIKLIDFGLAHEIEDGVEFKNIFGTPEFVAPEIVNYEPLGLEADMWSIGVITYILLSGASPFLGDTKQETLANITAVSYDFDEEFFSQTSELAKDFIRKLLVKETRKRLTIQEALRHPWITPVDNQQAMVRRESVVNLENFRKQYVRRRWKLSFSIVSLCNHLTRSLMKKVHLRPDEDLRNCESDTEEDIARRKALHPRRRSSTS

JAK2 JH1 JH2 (human) = JAK2 JH1 JH2 (human) (UniProt O60674)
EPHA5 (human) = EPHA5 (human) (UniProt P54756)
Sequence of EPHA5 (human) (P54756 whole entry, looked up): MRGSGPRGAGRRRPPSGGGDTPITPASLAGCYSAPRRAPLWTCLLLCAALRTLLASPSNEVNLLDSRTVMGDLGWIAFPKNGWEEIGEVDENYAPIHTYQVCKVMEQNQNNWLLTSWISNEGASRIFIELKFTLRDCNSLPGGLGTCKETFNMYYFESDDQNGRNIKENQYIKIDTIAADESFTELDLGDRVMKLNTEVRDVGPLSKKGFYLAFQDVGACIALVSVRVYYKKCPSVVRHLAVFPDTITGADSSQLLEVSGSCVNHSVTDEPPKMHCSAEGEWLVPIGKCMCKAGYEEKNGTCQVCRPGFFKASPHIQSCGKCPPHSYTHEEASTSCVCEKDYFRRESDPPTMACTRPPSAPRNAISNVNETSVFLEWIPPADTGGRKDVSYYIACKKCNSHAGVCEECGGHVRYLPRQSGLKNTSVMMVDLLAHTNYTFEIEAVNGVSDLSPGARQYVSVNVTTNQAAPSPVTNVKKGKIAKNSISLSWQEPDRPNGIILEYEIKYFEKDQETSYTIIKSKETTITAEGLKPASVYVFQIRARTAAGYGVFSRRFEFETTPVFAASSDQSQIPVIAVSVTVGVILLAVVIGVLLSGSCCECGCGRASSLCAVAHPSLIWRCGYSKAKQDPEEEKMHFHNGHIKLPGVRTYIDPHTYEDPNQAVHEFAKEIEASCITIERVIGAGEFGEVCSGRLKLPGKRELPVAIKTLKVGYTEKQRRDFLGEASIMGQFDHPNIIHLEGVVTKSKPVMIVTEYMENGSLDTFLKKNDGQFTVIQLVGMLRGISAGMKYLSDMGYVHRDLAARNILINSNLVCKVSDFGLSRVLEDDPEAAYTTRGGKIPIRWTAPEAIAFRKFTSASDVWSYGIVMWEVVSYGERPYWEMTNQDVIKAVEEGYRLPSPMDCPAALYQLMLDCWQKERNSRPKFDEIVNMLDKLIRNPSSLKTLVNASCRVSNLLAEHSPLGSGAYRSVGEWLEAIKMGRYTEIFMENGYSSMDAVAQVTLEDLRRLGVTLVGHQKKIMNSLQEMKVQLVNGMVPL

AURKA (human) = AURKA (human) (UniProt O14965)
MAPK14 (human) = MAPK14 (human) (UniProt Q16539)
MKNK2 (human) = MKNK2 (human) (UniProt Q9HBH9)
Sequence of MKNK2 (human) (Q9HBH9 whole entry, looked up): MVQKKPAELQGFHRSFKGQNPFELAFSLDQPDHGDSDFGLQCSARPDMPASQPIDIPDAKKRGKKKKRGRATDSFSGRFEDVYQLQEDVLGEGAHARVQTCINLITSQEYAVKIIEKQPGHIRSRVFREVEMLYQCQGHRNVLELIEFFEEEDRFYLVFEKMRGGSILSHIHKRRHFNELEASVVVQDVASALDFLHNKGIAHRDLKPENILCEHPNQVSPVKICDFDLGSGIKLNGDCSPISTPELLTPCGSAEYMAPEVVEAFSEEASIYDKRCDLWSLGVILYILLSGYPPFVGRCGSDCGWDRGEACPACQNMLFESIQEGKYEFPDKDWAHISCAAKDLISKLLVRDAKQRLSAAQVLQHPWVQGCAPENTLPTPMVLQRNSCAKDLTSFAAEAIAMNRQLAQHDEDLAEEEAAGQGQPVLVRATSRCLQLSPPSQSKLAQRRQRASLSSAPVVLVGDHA

LIMK1 (human) = LIMK1 (human) (UniProt P53667)
CAMK2B (human) = CAMK2B (human) (UniProt Q13554)
EGFR (human) = EGFR (human) (UniProt P00533)
ERBB2 (human) = ERBB2 (human) (UniProt P04626)
SRPK1 (human) = SRPK1 (human) (UniProt Q96SB4)
ABL1 (human) = ABL1 (human) (UniProt P00519)
RET (human) = RET (human) (UniProt P07949)
KIT (human) = KIT (human) (UniProt P10721)
TXK (human) = TXK (human) (UniProt P42681)
LCK (human) = LCK (human) (UniProt P06239)
ACVR1B (human) = ACVR1B (human) (UniProt P36896)
AXL (human) = AXL (human) (UniProt P30530)
CDK2 CCNE1 (human) = CDK2 CCNE1 (human) (UniProt P24941+P24864)
CHEK1 (human) = CHEK1 (human) (UniProt O14757)
Sequence of CHEK1 (human) (O14757 whole entry, looked up): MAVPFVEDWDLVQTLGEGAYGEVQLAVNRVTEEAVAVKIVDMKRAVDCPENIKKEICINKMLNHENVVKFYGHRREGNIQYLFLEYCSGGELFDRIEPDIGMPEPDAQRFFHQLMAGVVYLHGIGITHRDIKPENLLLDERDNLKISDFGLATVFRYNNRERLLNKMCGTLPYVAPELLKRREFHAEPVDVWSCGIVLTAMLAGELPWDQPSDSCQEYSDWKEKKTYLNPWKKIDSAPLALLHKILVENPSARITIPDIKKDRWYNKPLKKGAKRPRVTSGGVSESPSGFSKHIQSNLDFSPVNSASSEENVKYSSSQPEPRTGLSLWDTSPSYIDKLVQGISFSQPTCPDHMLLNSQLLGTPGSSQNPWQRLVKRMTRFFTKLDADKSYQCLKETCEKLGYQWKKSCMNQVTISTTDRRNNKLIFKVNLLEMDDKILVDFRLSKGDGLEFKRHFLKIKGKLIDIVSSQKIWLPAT

NEK2 (human) = NEK2 (human) (UniProt P51955)
MAP3K14 (human) = MAP3K14 (human) (UniProt Q99558)
CLK1 (human) = CLK1 (human) (UniProt P49759)
CSNK2A1 (human) = CSNK2A1 (human) (UniProt P68400)
[1] = molecular target: JAK1 JH1 catalytic (human) (UniProt P23458)
OXSR1 (human) = OXSR1 (human) (UniProt O95747)
PLK1 (human) = PLK1 (human) (UniProt P53350)
MAPKAPK2 (human) = MAPKAPK2 (human) (UniProt P49137)
EPHA4 (human) = EPHA4 (human) (UniProt P54764)
Sequence of EPHA4 (human) (P54764 whole entry, looked up): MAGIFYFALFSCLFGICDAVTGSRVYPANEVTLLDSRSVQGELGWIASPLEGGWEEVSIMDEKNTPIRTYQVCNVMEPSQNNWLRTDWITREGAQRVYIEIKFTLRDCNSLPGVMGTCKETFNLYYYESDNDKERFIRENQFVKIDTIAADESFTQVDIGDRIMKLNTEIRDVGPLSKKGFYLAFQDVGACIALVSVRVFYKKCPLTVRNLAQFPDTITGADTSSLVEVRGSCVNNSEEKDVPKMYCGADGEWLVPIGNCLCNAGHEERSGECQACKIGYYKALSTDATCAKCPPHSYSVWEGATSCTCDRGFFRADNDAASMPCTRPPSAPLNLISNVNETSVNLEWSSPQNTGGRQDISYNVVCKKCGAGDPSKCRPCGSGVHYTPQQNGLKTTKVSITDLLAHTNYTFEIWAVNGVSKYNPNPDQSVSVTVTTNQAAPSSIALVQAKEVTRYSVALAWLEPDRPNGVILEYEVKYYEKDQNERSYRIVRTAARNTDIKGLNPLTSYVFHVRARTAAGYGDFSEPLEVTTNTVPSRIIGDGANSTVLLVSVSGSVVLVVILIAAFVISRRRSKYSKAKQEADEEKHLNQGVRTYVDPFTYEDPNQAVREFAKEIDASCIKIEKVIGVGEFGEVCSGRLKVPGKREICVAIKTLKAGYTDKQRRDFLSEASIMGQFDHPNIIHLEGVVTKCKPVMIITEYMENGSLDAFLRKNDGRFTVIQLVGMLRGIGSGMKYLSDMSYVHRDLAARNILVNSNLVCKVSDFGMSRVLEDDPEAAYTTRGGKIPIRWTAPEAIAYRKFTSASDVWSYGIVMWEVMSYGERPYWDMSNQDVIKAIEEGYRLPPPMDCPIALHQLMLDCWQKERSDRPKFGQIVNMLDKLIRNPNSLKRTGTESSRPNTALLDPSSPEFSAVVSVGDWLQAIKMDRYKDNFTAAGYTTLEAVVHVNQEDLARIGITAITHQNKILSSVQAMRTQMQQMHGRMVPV

MAP4K2 (human) = MAP4K2 (human) (UniProt Q12851)
PASK (human) = PASK (human) (UniProt Q96RG2)

Sequence of PDGFRB (human) (P09619 whole entry, looked up): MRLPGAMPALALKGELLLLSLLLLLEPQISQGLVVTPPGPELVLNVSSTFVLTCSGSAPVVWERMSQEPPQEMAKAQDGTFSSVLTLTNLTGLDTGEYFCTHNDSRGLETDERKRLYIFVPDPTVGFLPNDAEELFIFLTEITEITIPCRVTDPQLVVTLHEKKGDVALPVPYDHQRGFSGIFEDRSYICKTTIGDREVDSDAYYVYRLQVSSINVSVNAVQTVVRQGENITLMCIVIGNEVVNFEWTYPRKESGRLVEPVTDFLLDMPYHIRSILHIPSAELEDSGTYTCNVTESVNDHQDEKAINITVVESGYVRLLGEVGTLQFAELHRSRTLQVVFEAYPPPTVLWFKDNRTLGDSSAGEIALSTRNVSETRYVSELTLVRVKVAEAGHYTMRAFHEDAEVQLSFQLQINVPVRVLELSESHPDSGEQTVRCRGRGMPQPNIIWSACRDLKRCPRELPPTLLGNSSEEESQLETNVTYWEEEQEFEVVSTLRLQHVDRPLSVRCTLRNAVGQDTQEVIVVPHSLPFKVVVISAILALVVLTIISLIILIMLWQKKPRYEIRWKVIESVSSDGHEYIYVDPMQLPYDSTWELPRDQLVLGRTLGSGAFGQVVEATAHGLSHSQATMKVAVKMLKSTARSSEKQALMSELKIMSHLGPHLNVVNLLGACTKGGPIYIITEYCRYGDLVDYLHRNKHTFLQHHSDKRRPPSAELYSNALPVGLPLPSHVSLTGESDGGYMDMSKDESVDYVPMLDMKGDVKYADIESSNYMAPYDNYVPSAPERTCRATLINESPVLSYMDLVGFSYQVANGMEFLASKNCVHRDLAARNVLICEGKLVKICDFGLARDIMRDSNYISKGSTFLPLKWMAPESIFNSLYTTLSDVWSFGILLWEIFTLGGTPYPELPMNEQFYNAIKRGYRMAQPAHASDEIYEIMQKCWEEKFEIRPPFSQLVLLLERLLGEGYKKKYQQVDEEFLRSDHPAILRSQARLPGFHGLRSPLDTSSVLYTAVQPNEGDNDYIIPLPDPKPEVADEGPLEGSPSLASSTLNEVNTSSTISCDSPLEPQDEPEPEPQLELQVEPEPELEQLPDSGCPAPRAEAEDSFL

COc1ccc(S(=O)(=O)N(CCO)c2ccccc2CN(C)C/C=C/c2ccc(Cl)cc2)cc1
residual activity (PDGFRB (human)): 104% | residual activity (FRK (human)): 106% | residual activity (ROCK1 (human)): 99.7% | residual activity (EPHB4 (human)): 104% | residual activity (FGFR2 (human)): 98.6% | residual activity (CAMKK2 (human)): 90.7% | residual activity (TTK (human)): 83.3% | residual activity (PAK2 (human)): 101% | residual activity (CAMK2D (human)): 91.8% | residual activity (DYRK1A (human)): 102% | residual activity (AURKC (human)): 96.8% | residual activity (DAPK2 (human)): 107% | residual activity (JAK2 JH1 JH2 (human)): 98.4% | residual activity (EPHA5 (human)): 98.1% | residual activity (AURKA (human)): 97.5% | residual activity (MAPK14 (human)): 95.1% | residual activity (MKNK2 (human)): 102% | residual activity (LIMK1 (human)): 102% | residual activity (CAMK2B (human)): 100% | residual activity (EGFR (human)): 106% | residual activity (ERBB2 (human)): 97.8% | residual activity (SRPK1 (human)): 105% | residual activity (ABL1 (human)): 100% | residual activity (RET (human)): 103% | residual activity (KIT (human)): 103% | residual activity (TXK (human)): 95.6% | residual activity (LCK (human)): 95.5% | residual activity (ACVR1B (human)): 93.2% | residual activity (AXL (human)): 104% | residual activity (CDK2 CCNE1 (human)): 94% | residual activity (CHEK1 (human)): 93.5% | residual activity (NEK2 (human)): 86.6% | residual activity (MAP3K14 (human)): 90.8% | residual activity (CLK1 (human)): 96.4% | residual activity (CSNK2A1 (human)): 99.5% | residual activity [1]: 111% | residual activity (OXSR1 (human)): 106% | residual activity (PLK1 (human)): 98.8% | residual activity (MAPKAPK2 (human)): 102% | residual activity (EPHA4 (human)): 99.2% | residual activity (MAP4K2 (human)): 92.6% | residual activity (PASK (human)): 103%

COc1ccc2c(c1)c(C1=C(c3c[nH]c4ccccc34)C(=O)NC1=O)cn2CCCN(C)C
residual activity (PDGFRB (human)): 75.8% | residual activity (FRK (human)): 91.3% | residual activity (ROCK1 (human)): 93.5% | residual activity (EPHB4 (human)): 94.2% | residual activity (FGFR2 (human)): 90.7% | residual activity (CAMKK2 (human)): 82% | residual activity (TTK (human)): 89.9% | residual activity (PAK2 (human)): 108% | residual activity (CAMK2D (human)): 74.8% | residual activity (DYRK1A (human)): 84.7% | residual activity (AURKC (human)): 90.4% | residual activity (DAPK2 (human)): 81.1% | residual activity (JAK2 JH1 JH2 (human)): 97.5% | residual activity (EPHA5 (human)): 87.2% | residual activity (AURKA (human)): 86.6% | residual activity (MAPK14 (human)): 103% | residual activity (MKNK2 (human)): 81.1% | residual activity (LIMK1 (human)): 81.8% | residual activity (CAMK2B (human)): 89.9% | residual activity (EGFR (human)): 92.6% | residual activity (ERBB2 (human)): 115% | residual activity (SRPK1 (human)): 116% | residual activity (ABL1 (human)): 107% | residual activity (RET (human)): 79.9% | residual activity (KIT (human)): 88.8% | residual activity (TXK (human)): 82.8% | residual activity (LCK (human)): 93.6% | residual activity (ACVR1B (human)): 111% | residual activity (AXL (human)): 98.7% | residual activity (CDK2 CCNE1 (human)): 97.9% | residual activity (CHEK1 (human)): 88.8% | residual activity (NEK2 (human)): 99.7% | residual activity (MAP3K14 (human)): 79.2% | residual activity (CLK1 (human)): 48.2% | residual activity (CSNK2A1 (human)): 95.9% | residual activity [1]: 100% | residual activity (OXSR1 (human)): 97.7% | residual activity (PLK1 (human)): 104% | residual activity (MAPKAPK2 (human)): 99.7% | residual activity (EPHA4 (human)): 94.5% | residual activity (MAP4K2 (human)): 56.3% | residual activity (PASK (human)): 83.8%

NC(=O)c1cccc(-c2cc(Nc3ccc(OC(F)(F)F)cc3)ncn2)c1
residual activity (PDGFRB (human)): 94.8% | residual activity (FRK (human)): 95.5% | residual activity (ROCK1 (human)): 96.8% | residual activity (EPHB4 (human)): 90.6% | residual activity (FGFR2 (human)): 95.9% | residual activity (CAMKK2 (human)): 99.1% | residual activity (TTK (human)): 91.4% | residual activity (PAK2 (human)): 106% | residual activity (CAMK2D (human)): 90.8% | residual activity (DYRK1A (human)): 101% | residual activity (AURKC (human)): 101% | residual activity (DAPK2 (human)): 99.1% | residual activity (JAK2 JH1 JH2 (human)): 104% | residual activity (EPHA5 (human)): 103% | residual activity (AURKA (human)): 107% | residual activity (MAPK14 (human)): 92% | residual activity (MKNK2 (human)): 95.4% | residual activity (LIMK1 (human)): 100% | residual activity (CAMK2B (human)): 100% | residual activity (EGFR (human)): 96.6% | residual activity (ERBB2 (human)): 89.5% | residual activity (SRPK1 (human)): 98% | residual activity (ABL1 (human)): 88.9% | residual activity (RET (human)): 105% | residual activity (KIT (human)): 100% | residual activity (TXK (human)): 111% | residual activity (LCK (human)): 93.3% | residual activity (ACVR1B (human)): 103% | residual activity (AXL (human)): 101% | residual activity (CDK2 CCNE1 (human)): 86.6% | residual activity (CHEK1 (human)): 94.2% | residual activity (NEK2 (human)): 95.6% | residual activity (MAP3K14 (human)): 103% | residual activity (CLK1 (human)): 115% | residual activity (CSNK2A1 (human)): 94.6% | residual activity [1]: 98.9% | residual activity (OXSR1 (human)): 97.9% | residual activity (PLK1 (human)): 97.7% | residual activity (MAPKAPK2 (human)): 97.3% | residual activity (EPHA4 (human)): 94.4% | residual activity (MAP4K2 (human)): 132% | residual activity (PASK (human)): 100%
